Measured values as given in patent US4323567A, “Arylmalonamido-1-oxadethiacephalosporins” (priority 1976, dated 1982).
Where two headings read alike, the source gives them in different places.

Legend:
Assay in all cases: Minimal inhibitory concentration, nutrient agar plate
E. coli JC-2 = type: cell-based; details: Escherichia coli, JC2, inoculum size 10^8, pH 7.0, read-out: Minimal inhibitory concentration
Ps. aeruginosa 25619 = type: cell-based, Pseudomonas aeruginosa; details: Pseudomonas aeruginosa, 25619, inoculum size 10^8, pH 7.0, read-out: Minimal inhibitory concentration
[1] = system: Pseudomonas aeruginosa Denken; type: cell-based; details: inoculum size 10^8, pH 7.0, read-out: Minimal inhibitory concentration
E. coli 377 = type: cell-based, Escherichia coli; details: Escherichia coli, 377, inoculum size 10^8, pH 7.0, read-out: Minimal inhibitory concentration
Escherichia coli H = type: cell-based; details: inoculum size 10^8, pH 7.0, read-out: Minimal inhibitory concentration
P. vulgaris No. 3 = type: cell-based; details: Proteus vulgaris, NO.3, inoculum size 10^8, pH 7.0, read-out: Minimal inhibitory concentration
Klebsiella sp. 363 = type: cell-based; details: inoculum size 10^8, pH 7.0, read-out: Minimal inhibitory concentration
P. vulgaris CN-329 = type: cell-based; details: Proteus vulgaris, CN329, inoculum size 10^8, pH 7.0, read-out: Minimal inhibitory concentration
P. morganii No. 9 = type: cell-based, Proteus morganii; details: Morganella morganii, NO.9, inoculum size 10^8, pH 7.0, read-out: Minimal inhibitory concentration
Enterobacter cloacae 233 = type: cell-based; details: Enterobacter cloacae, 233, inoculum size 10^8, pH 7.0, read-out: Minimal inhibitory concentration
Ps. aeruginosa 24 = type: cell-based, Pseudomonas aeruginosa; details: Pseudomonas aeruginosa, 24, inoculum size 10^8, pH 7.0, read-out: Minimal inhibitory concentration
Klebsiella pneumoniae = type: cell-based; details: inoculum size 10^8, pH 7.0, read-out: Minimal inhibitory concentration
Proteus mirabilis PR-4 = type: cell-based; details: inoculum size 10^8, pH 7.0, read-out: Minimal inhibitory concentration
E. coli 73 = type: cell-based, Escherichia coli; details: Escherichia coli, 73, inoculum size 10^8, pH 7.0, read-out: Minimal inhibitory concentration
[2] = system: Serratia marsescens 13880; type: cell-based; details: Serratia, 13880, inoculum size 10^8, pH 7.0, read-out: Minimal inhibitory concentration
[3] = ester, in the presence of 5% horse serum, sodium salt
[4] = SP.363, ester, in the presence of 5% horse serum, sodium salt
[5] = PR4, ester, in the presence of 5% horse serum, sodium salt

| SMILES | MIC (E. coli JC-2; as sodium salt) | MIC (Ps. aeruginosa 25619; as sodium salt) | MIC ([1]; as sodium salt) | MIC (E. coli 377; as sodium salt) | MIC (Escherichia coli H; as sodium salt) | MIC (P. vulgaris No. 3; as sodium salt) | MIC (Klebsiella sp. 363; SP.363, as sodium salt) | MIC (P. vulgaris CN-329; as sodium salt) | MIC (P. morganii No. 9; as sodium salt) | MIC (Enterobacter cloacae 233; as sodium salt) | MIC (Ps. aeruginosa 24; as sodium salt) | MIC (Klebsiella pneumoniae; as sodium salt) | MIC (Proteus mirabilis PR-4; PR4, as sodium salt) | MIC (E. coli 73; as sodium salt) | MIC ([2]; as sodium salt) | MIC (E. coli JC-2; [3]) | MIC (Ps. aeruginosa 25619; [3]) | MIC [1, 3] | MIC (E. coli 377; [3]) | MIC (Escherichia coli H; [3]) | other results |
| --- | --- | --- | --- | --- | --- | --- | --- | --- | --- | --- | --- | --- | --- | --- | --- | --- | --- | --- | --- | --- | --- |
| CO[C@@]1(NC(=O)C(C(=O)O)c2ccc(OC(C)=O)cc2)C(=O)N2C(C(=O)O)=C(CSc3nnnn3C)CO[C@@H]21 (stereo partly drawn) [III-14, 7β-(α-carboxy-α-p-acetoxyphenylacetamido)-7α-methoxy-3-(1-methyltetrazol-5-yl)thiomethyl-1-oxadethia-3-cephem-4-carboxylic acid] | 0.39 µg/mL | 25 µg/mL | > 100 µg/mL | 1.56 µg/mL | 0.2 µg/mL | 0.39 µg/mL | 0.78 µg/mL | 0.2 µg/mL | 0.39 µg/mL | 0.78 µg/mL | 100 µg/mL | 0.39 µg/mL | 0.2 µg/mL | 1.56 µg/mL | – | – | – | – | – | – | – |
| CO[C@@]1(NC(=O)C(C(=O)O)c2ccc(O)cc2)C(=O)N2C(C(=O)O)=C(CSc3nnnn3C)CO[C@@H]21 (stereo partly drawn) [III-15, 7β-(α-carboxy-α-p-hydroxyphenylacetamido)-7α-methoxy-3-(1-methyltetrazol-5-yl)thiomethyl-1-oxadethia-3-cephem-4-carboxylic acid] | 0.02 µg/mL | 6.25 µg/mL | 100 µg/mL | 0.39 µg/mL | 0.1 µg/mL | 0.39 µg/mL | 0.1 µg/mL | 0.39 µg/mL | 0.39 µg/mL | – | 50 µg/mL | 0.2 µg/mL | 0.39 µg/mL | 0.78 µg/mL | 1.56 µg/mL | – | – | – | – | – | – |
| CO[C@@]1(NC(=O)C(C(=O)Oc2ccc3c(c2)CCC3)c2ccc(O)cc2)C(=O)N2C(C(=O)O)=C(CSc3nnnn3C)CO[C@@H]21 (stereo partly drawn) [III-16, 7β-[α-P-hydroxyphenyl-α-(5-indanyl)oxycarvonylacetamido]-7β-methoxy-3-(1-methyltetrazol-5-yl)thiomethyl-1-oxadethia-3-cephem-4-carboxylic acid] | – | – | – | – | – | – | – | – | – | – | – | – | – | – | – | 0.02 µg/mL | 12.5 µg/mL | 100 µg/mL | 0.2 µg/mL | 0.1 µg/mL | MIC (P. vulgaris No. 3; [3]): 0.39 µg/mL; MIC (Klebsiella sp. 363; [4]): 0.2 µg/mL; MIC [2, 3]: 0.39 µg/mL; MIC (P. vulgaris CN-329; [3]): 0.78 µg/mL; MIC (P. morganii No. 9; [3]): 0.2 µg/mL; MIC (Enterobacter cloacae 233; [3]): 0.39 µg/mL; MIC (Ps. aeruginosa 24; [3]): 25 µg/mL; MIC (Klebsiella pneumoniae; [3]): 0.2 µg/mL; MIC (Proteus mirabilis PR-4; [5]): 0.39 µg/mL; MIC (E. coli 73; [3]): 0.78 µg/mL |
| CO[C@@]1(NC(=O)C(C(=O)O)c2ccsc2)C(=O)N2C(C(=O)O)=C(CSc3nnnn3C)CO[C@@H]21 (stereo partly drawn) [III-19, 7β-[α-(3-thienyl)-α-carboxyacetamido]-7α-methoxy-3-(1-methyltetrazol-5-yl)thiomethyl-1-oxadethia-3-cephem-4-carboxylic acid] | 0.05 µg/mL | 12.5 µg/mL | 100 µg/mL | 0.1 µg/mL | 0.025 µg/mL | 0.2 µg/mL | 0.05 µg/mL | 0.1 µg/mL | 0.1 µg/mL | 0.1 µg/mL | 50 µg/mL | 0.2 µg/mL | 0.2 µg/mL | 0.2 µg/mL | 0.39 µg/mL | – | – | – | – | – | – |
| CO[C@@]1(NC(=O)C(C(=O)O)c2cccs2)C(=O)N2C(C(=O)O)=C(CSc3nnnn3C)CO[C@@H]21 (stereo partly drawn) [III-23, 7β-[α-carboxy-α-(2-theinyl)acetamido]-7α-methoxy-3-(1-methyltetrazol-5-yl)thiomethyl-1-oxadethia-3-cephem-4-carboxylic acid] | 0.05 µg/mL | 12.5 µg/mL | 100 µg/mL | 0.39 µg/mL | 0.025 µg/mL | – | 0.1 µg/mL | 0.1 µg/mL | 0.1 µg/mL | 0.2 µg/mL | 50 µg/mL | 0.05 µg/mL | 0.1 µg/mL | 0.2 µg/mL | 0.39 µg/mL | – | – | – | – | – | – |
| CO[C@@]1(NC(=O)C(C(=O)Oc2ccc3c(c2)CCC3)c2ccccc2)C(=O)N2C(C(=O)O)=C(CSc3nnnn3C)CO[C@@H]21 (stereo partly drawn) [III-24, 7β-[α-(indan-5-yl)oxycarbonyl-α-phenylacetamido]-7α-methoxy-3-(1-methyltetrazol-5-yl)thiomethyl-1-oxadethia-3-cephem-4-carboxylic acid] | – | – | – | – | – | – | – | – | – | – | – | – | – | – | – | 0.01 µg/mL | 12.5 µg/mL | 100 µg/mL | 0.78 µg/mL | 0.025 µg/mL | MIC (P. vulgaris No. 3; [3]): 0.39 µg/mL; MIC (Klebsiella sp. 363; [4]): 0.05 µg/mL; MIC [2, 3]: 0.78 µg/mL; MIC (P. vulgaris CN-329; [3]): 0.1 µg/mL; MIC (P. morganii No. 9; [3]): 0.2 µg/mL; MIC (Enterobacter cloacae 233; [3]): 0.2 µg/mL; MIC (Ps. aeruginosa 24; [3]): 50 µg/mL; MIC (Klebsiella pneumoniae; [3]): 0.1 µg/mL; MIC (Proteus mirabilis PR-4; [5]): 0.1 µg/mL; MIC (E. coli 73; [3]): 0.39 µg/mL |
